# Reference: BindingDB's records for patent US12065399 (Hoffmann-La Roche, 2024)
# Biological target: Metabotropic glutamate receptor 4 (Homo sapiens, UniProt Q14833)
# Experiment: Intracellular Ca2+ Mobilization Assay (FLIPR)
# Protocol: A monoclonal HEK-293 cell line stably transfected with a cDNA encoding for the human mGlu4 receptor was generated. Cells were cultured according to standard protocols (Freshney, 2000) in Dulbecco's Modified Eagle Medium with high glucose supplemented with 1 mM glutamine, 10% (vol/vol) heat-inactivated bovine calf serum, penicillin/streptomycin, 50 μg/ml hygromycin and 15 μg/ml blasticidin (all cell culture reagents and antibiotics from Invitrogen, Basel, Switzerland).About 24 hrs before an experiment, 5×10^4 cells/well were seeded in poly-D-lysine coated, black/clear-bottomed 96-well plates. The cells were loaded with 2.5 μM Fluo-4AM in loading buffer (1×HBSS, 20 mM HEPES) for 1 hr at 37° C. and washed five times with loading buffer. The cells were transferred into a Functional Drug Screening System 7000 (Hamamatsu, Paris, France), and 11 half logarithmic serial dilutions of test compound at 37° C. were added and the cells were incubated for 10-30 min. with on-line recording of fluorescence. […]
# Chain of Metabotropic glutamate receptor 4 (Q14833 whole entry): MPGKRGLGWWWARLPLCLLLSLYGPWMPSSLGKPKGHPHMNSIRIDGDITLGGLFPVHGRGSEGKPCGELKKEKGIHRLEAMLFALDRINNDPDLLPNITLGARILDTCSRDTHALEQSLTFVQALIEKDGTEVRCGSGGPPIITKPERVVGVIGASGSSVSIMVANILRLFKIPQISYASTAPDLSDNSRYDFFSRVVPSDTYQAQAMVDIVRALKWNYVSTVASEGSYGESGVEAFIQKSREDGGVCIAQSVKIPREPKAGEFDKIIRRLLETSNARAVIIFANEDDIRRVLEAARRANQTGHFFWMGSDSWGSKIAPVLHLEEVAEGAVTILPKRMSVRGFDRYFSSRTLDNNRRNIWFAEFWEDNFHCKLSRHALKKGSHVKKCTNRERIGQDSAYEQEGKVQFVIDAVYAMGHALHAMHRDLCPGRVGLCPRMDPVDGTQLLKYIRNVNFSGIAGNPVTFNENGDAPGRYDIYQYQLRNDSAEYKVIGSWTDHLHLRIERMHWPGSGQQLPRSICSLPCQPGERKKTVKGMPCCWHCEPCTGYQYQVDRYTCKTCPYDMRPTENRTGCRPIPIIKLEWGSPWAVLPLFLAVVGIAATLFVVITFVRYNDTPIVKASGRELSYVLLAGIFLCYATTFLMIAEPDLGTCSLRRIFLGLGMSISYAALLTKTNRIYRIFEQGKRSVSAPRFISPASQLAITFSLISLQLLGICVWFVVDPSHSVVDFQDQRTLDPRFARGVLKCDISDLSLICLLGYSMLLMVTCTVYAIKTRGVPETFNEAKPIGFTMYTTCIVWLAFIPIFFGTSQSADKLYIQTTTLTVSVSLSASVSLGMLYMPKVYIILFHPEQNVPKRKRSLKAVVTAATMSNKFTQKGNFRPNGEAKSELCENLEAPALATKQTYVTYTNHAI
smiles,measurement,value
"CC(C)(C)c1cnn(-c2cc(F)c(NS(=O)(=O)c3cccc(Cl)c3Cl)c(F)c2)c1 [US12065399, Example 59]",EC50,9.28 µM
